Measurements reported in PubChem BioAssay (NCI).
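Exposure lasted 48 hours, with cells grown in 96-well plates and compounds tested at five concentrations. GI50 marks 50% less growth. Definition used: TGI = concentration required for complete inhibition of growth.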

Legend:
Assay in all cases: growth of human tumour cells (NCI), 48 h
UO-31 renal = test system: UO-31 renal
RPMI-8226 leukemia = test system: RPMI-8226 leukemia
HCC-2998 colon = test system: HCC-2998 colon
786-0 renal = test system: 786-0 renal
HCT-15 colon = test system: HCT-15 colon
PC-3 prostate = test system: PC-3 prostate
COLO 205 colon = test system: COLO 205 colon
HL-60(TB) leukemia = test system: HL-60(TB) leukemia
NCI-H460 lung = test system: NCI-H460 lung
T-47D breast = test system: T-47D breast
TK-10 renal = test system: TK-10 renal
HOP-62 NSCLC = test system: HOP-62 NSCLC
UACC-257 melanoma = test system: UACC-257 melanoma
IGROV1 ovarian = test system: IGROV1 ovarian
SN12C renal = test system: SN12C renal
RXF 393 renal = test system: RXF 393 renal
DU-145 prostate = test system: DU-145 prostate
NCI/ADR-RES ovarian = test system: NCI/ADR-RES ovarian
SK-OV-3 ovarian = test system: SK-OV-3 ovarian
MDA-MB-435 = test system: MDA-MB-435
OVCAR-4 ovarian = test system: OVCAR-4 ovarian
SR leukemia = test system: SR leukemia
SNB-19 CNS = test system: SNB-19 CNS
SF-539 CNS = test system: SF-539 CNS
UACC-62 melanoma = test system: UACC-62 melanoma
SNB-75 CNS = test system: SNB-75 CNS
NCI-H522 lung = test system: NCI-H522 lung
A549 NSCLC = test system: A549 NSCLC
BT-549 breast = test system: BT-549 breast
OVCAR-3 ovarian = test system: OVCAR-3 ovarian
M14 melanoma = test system: M14 melanoma
OVCAR-8 ovarian = test system: OVCAR-8 ovarian
OVCAR-5 ovarian = test system: OVCAR-5 ovarian
MOLT-4 leukemia = test system: MOLT-4 leukemia
SK-MEL-5 melanoma = test system: SK-MEL-5 melanoma
HCT-116 colon = test system: HCT-116 colon
HT29 colon = test system: HT29 colon
EKVX NSCLC = test system: EKVX NSCLC
MALME-3M melanoma = test system: MALME-3M melanoma
SF-268 CNS = test system: SF-268 CNS
HS 578T breast = test system: HS 578T breast
KM12 colon = test system: KM12 colon
MDA-MB-231 breast = test system: MDA-MB-231 breast
NCI-H23 lung = test system: NCI-H23 lung
MCF7 breast = test system: MCF7 breast
ACHN renal = test system: ACHN renal
CCRF-CEM leukemia = test system: CCRF-CEM leukemia
SK-MEL-28 melanoma = test system: SK-MEL-28 melanoma
SF-295 CNS = test system: SF-295 CNS
HOP-92 NSCLC = test system: HOP-92 NSCLC
LOX IMVI melanoma = test system: LOX IMVI melanoma
U251 CNS = test system: U251 CNS
A498 renal = test system: A498 renal
CAKI-1 renal = test system: CAKI-1 renal
SK-MEL-2 melanoma = test system: SK-MEL-2 melanoma
NCI-H226 lung = test system: NCI-H226 lung
SW-620 colon = test system: SW-620 colon

COC(=O)[C@@H]1CCCN1C(=O)[C@@H]1CCCN1C(=O)[C@H](Cc1ccccc1)NC(=S)Nc1cc(C(F)(F)F)cc(C(F)(F)F)c1
GI50 (UO-31 renal): 3.3 µM
TGI (UO-31 renal): > 100 µM
GI50 (RPMI-8226 leukemia): 3.36 µM
TGI (RPMI-8226 leukemia): 41 µM
GI50 (HCC-2998 colon): 2.65 µM
TGI (HCC-2998 colon): 7.06 µM
GI50 (786-0 renal): 4.47 µM
TGI (786-0 renal): > 100 µM
GI50 (HCT-15 colon): 3.8 µM
TGI (HCT-15 colon): > 100 µM
GI50 (PC-3 prostate): 2.72 µM
TGI (PC-3 prostate): 26.2 µM
GI50 (COLO 205 colon): 2.43 µM
TGI (COLO 205 colon): 5.85 µM
GI50 (HL-60(TB) leukemia): 2.53 µM
TGI (HL-60(TB) leukemia): 5.49 µM
GI50 (NCI-H460 lung): 3.4 µM
TGI (NCI-H460 lung): > 100 µM
GI50 (T-47D breast): 4.27 µM
TGI (T-47D breast): > 100 µM
GI50 (TK-10 renal): 5.41 µM
TGI (TK-10 renal): > 100 µM
GI50 (HOP-62 NSCLC): 4.56 µM
TGI (HOP-62 NSCLC): 72.5 µM
GI50 (UACC-257 melanoma): 2.92 µM
TGI (UACC-257 melanoma): 11.4 µM
GI50 (IGROV1 ovarian): 7.24 µM
TGI (IGROV1 ovarian): > 100 µM
GI50 (SN12C renal): 3.47 µM
TGI (SN12C renal): > 100 µM
GI50 (RXF 393 renal): 2.19 µM
TGI (RXF 393 renal): 7.41 µM
GI50 (DU-145 prostate): 5.06 µM
TGI (DU-145 prostate): > 100 µM
GI50 (NCI/ADR-RES ovarian): 2.99 µM
TGI (NCI/ADR-RES ovarian): > 100 µM
GI50 (SK-OV-3 ovarian): 9.26 µM
TGI (SK-OV-3 ovarian): > 100 µM
GI50 (MDA-MB-435): 3.29 µM
TGI (MDA-MB-435): > 100 µM
GI50 (OVCAR-4 ovarian): 4.29 µM
TGI (OVCAR-4 ovarian): > 100 µM
GI50 (SR leukemia): 3.69 µM
TGI (SR leukemia): 24.9 µM
GI50 (SNB-19 CNS): 3.77 µM
TGI (SNB-19 CNS): > 100 µM
GI50 (SF-539 CNS): 4.51 µM
TGI (SF-539 CNS): > 100 µM
GI50 (UACC-62 melanoma): 3.3 µM
TGI (UACC-62 melanoma): 63.5 µM
GI50 (SNB-75 CNS): 2.06 µM
TGI (SNB-75 CNS): 61 µM
GI50 (NCI-H522 lung): 3.17 µM
TGI (NCI-H522 lung): 9.6 µM
GI50 (A549 NSCLC): 3.82 µM
TGI (A549 NSCLC): > 100 µM
GI50 (BT-549 breast): 4.39 µM
TGI (BT-549 breast): 71.5 µM
GI50 (OVCAR-3 ovarian): 3.43 µM
TGI (OVCAR-3 ovarian): 9.98 µM
GI50 (M14 melanoma): 3.7 µM
TGI (M14 melanoma): > 100 µM
GI50 (OVCAR-8 ovarian): 4.31 µM
TGI (OVCAR-8 ovarian): > 100 µM
GI50 (OVCAR-5 ovarian): 3.8 µM
TGI (OVCAR-5 ovarian): 42.4 µM
GI50 (MOLT-4 leukemia): 2.88 µM
TGI (MOLT-4 leukemia): 7.88 µM
GI50 (SK-MEL-5 melanoma): 2.6 µM
TGI (SK-MEL-5 melanoma): 9.18 µM
GI50 (HCT-116 colon): 3.01 µM
TGI (HCT-116 colon): 15.2 µM
GI50 (HT29 colon): 2.76 µM
TGI (HT29 colon): 6.51 µM
GI50 (EKVX NSCLC): 3.07 µM
TGI (EKVX NSCLC): > 100 µM
GI50 (MALME-3M melanoma): 5.53 µM
TGI (MALME-3M melanoma): > 100 µM
GI50 (SF-268 CNS): 4.83 µM
TGI (SF-268 CNS): > 100 µM
GI50 (HS 578T breast): 4.49 µM
TGI (HS 578T breast): > 100 µM
GI50 (KM12 colon): 3.93 µM
TGI (KM12 colon): > 100 µM
GI50 (MDA-MB-231 breast): 2.04 µM
TGI (MDA-MB-231 breast): 5.6 µM
GI50 (NCI-H23 lung): 3.16 µM
TGI (NCI-H23 lung): > 100 µM
GI50 (MCF7 breast): 3.08 µM
TGI (MCF7 breast): > 100 µM
GI50 (ACHN renal): 3.98 µM
TGI (ACHN renal): > 100 µM
GI50 (CCRF-CEM leukemia): 3.54 µM
TGI (CCRF-CEM leukemia): > 100 µM
GI50 (SK-MEL-28 melanoma): 3.48 µM
TGI (SK-MEL-28 melanoma): > 100 µM
GI50 (SF-295 CNS): 2.16 µM
TGI (SF-295 CNS): 4.82 µM
GI50 (HOP-92 NSCLC): 1.77 µM
TGI (HOP-92 NSCLC): 5.65 µM
GI50 (LOX IMVI melanoma): 2.6 µM
TGI (LOX IMVI melanoma): 9.89 µM
GI50 (U251 CNS): 2.79 µM
TGI (U251 CNS): 13.2 µM
GI50 (A498 renal): 2.55 µM
TGI (A498 renal): 22.9 µM
GI50 (CAKI-1 renal): 3.55 µM
TGI (CAKI-1 renal): > 100 µM
GI50 (SK-MEL-2 melanoma): 2.93 µM
TGI (SK-MEL-2 melanoma): 7.39 µM
GI50 (NCI-H226 lung): 3.39 µM
TGI (NCI-H226 lung): > 100 µM
GI50 (SW-620 colon): 5.11 µM
TGI (SW-620 colon): > 100 µM
